The values below come from patent US20180002288A1, “USE OF PICOLINAMIDES AS FUNGICIDES” (DOW AGROSCIENCES LLC, priority 2014, published 2018).

Read-outs that look alike come from different tables or passages of the source.

In one test the test system is Puccinia triticina. As to the kind of experiment: Wheat Brown Rust fungicidal activity (PUCCRT). The format is in vivo. The following applies: Low Volume Cereal Activity at 121.5 g/Ha.
In another test the test system is Zymoseptoria tritici. As to the kind of experiment: Leaf Blotch of Wheat fungicidal activity (SEPTTR). The format is in vivo. The following applies: Low Volume Cereal Activity at 121.5 g/Ha.
Where [1] appears, read: 24 h, 1 Day Protectant, read-out: PUCCRT 1DP (Wheat Brown Rust, 1 Day Protectant).
[2] abbreviates: 72 h, 3 Day Curative, read-out: PUCCRT 3DC (Wheat Brown Rust, 3 Day Curative).
Where [3] appears, read: 24 h, 1 Day Protectant, read-out: SEPTTR 1DP (Wheat Leaf Blotch, 1 Day Protectant).
The mark [4] stands for this setting: 72 h, 3 Day Curative, read-out: SEPTTR 3DC (Wheat Leaf Blotch, 3 Day Curative).

Consider `COc1ccnc(C(=O)N[C@@H](C)C(=O)O[C@@H](C)[C@@H](Oc2ccc(Cl)cc2Cl)c2ccccc2)c1OC(C)=O` [Example 214], for which the pest or weed control at 121.5 g/ha in the test with Puccinia triticina (setting [1]) is above 80%; in the test with Puccinia triticina (setting [2]), below 80%; with Zymoseptoria tritici (setting [3]), above 80%; in the test on Zymoseptoria tritici (setting [4]), above 80%.
`COc1ccnc(C(=O)N[C@@H](C)C(=O)O[C@@H](C)[C@@H](Oc2ccc(Cl)cc2Cl)c2ccccc2)c1OC(=O)C(C)C` [Example 215]: the pest or weed control at 121.5 g/ha in the test with Puccinia triticina (setting [1]), in the test on Puccinia triticina (setting [2]), with Zymoseptoria tritici (setting [3]) and in the test on Zymoseptoria tritici (setting [4]) was below 80% throughout.
In the case of `COc1ccnc(C(=O)N[C@@H](C)C(=O)O[C@@H](C)[C@@H](Oc2ccc(Cl)cc2Cl)c2ccccc2)c1OCOC(C)=O` [Example 216], the pest or weed control at 121.5 g/ha is above 80% with Puccinia triticina (setting [1]), below 80% in the test on Puccinia triticina (setting [2]), above 80% with Zymoseptoria tritici (setting [3]) and above 80% in the test on Zymoseptoria tritici (setting [4]).
For the compound `COc1ccnc(C(=O)N[C@@H](C)C(=O)O[C@@H](C)[C@@H](Oc2ccccc2)c2ccccc2)c1OC(C)=O` [Example 217], the pest or weed control at 121.5 g/ha in the test on Puccinia triticina (setting [1]) was above 80%; with Puccinia triticina (setting [2]), below 80%; in the test on Zymoseptoria tritici (setting [3]) it was above 80%; with Zymoseptoria tritici (setting [4]) it was above 80%.
Regarding `COc1ccnc(C(=O)N[C@@H](C)C(=O)O[C@@H](C)[C@@H](Oc2ccccc2)c2ccccc2)c1OC(=O)C(C)C` [Example 218], the pest or weed control at 121.5 g/ha was below 0% with Puccinia triticina (setting [1]), below 0% in the test with Puccinia triticina (setting [2]), above 80% in the test with Zymoseptoria tritici (setting [3]) and below 80% with Zymoseptoria tritici (setting [4]).
On to `COc1ccnc(C(=O)N[C@@H](C)C(=O)O[C@@H](C)[C@@H](Oc2ccccc2)c2ccccc2)c1OCOC(C)=O` [Example 219], for which the pest or weed control at 121.5 g/ha in the test with Puccinia triticina (setting [1]), in the test on Puccinia triticina (setting [2]), in the test with Zymoseptoria tritici (setting [3]) and in the test with Zymoseptoria tritici (setting [4]) was above 80% each time.
In the case of `COc1ccnc(C(=O)N[C@@H](C)C(=O)O[C@@H](C)[C@H](Oc2cccc(F)c2)c2cccc(-c3ccccc3)c2)c1OCOC(C)=O` [Example 221], the pest or weed control at 121.5 g/ha in the test with Puccinia triticina (setting [1]) was above 80%; in the test with Puccinia triticina (setting [2]), below 80%; with Zymoseptoria tritici (setting [3]), above 80%; in the test with Zymoseptoria tritici (setting [4]), below 80%.
Consider `COc1ccnc(C(=O)N[C@@H](C)C(=O)O[C@@H](C)[C@H](OCC2CC2)c2cccc(-c3ccccc3)c2)c1OC(C)=O` [Example 222], for which the pest or weed control at 121.5 g/ha with Puccinia triticina (setting [1]), with Puccinia triticina (setting [2]), in the test on Zymoseptoria tritici (setting [3]) and in the test with Zymoseptoria tritici (setting [4]) was above 80% each time.
On to `COc1ccnc(C(=O)N[C@@H](C)C(=O)O[C@@H](C)[C@H](Oc2cccc(F)c2)c2cccc(-c3ccccc3)c2)c1OC(C)=O` [Example 223], for which the pest or weed control at 121.5 g/ha is above 80% with Puccinia triticina (setting [1]), below 80% with Puccinia triticina (setting [2]), above 80% in the test with Zymoseptoria tritici (setting [3]) and above 80% in the test with Zymoseptoria tritici (setting [4]).
Take `COc1ccnc(C(=O)N[C@@H](C)C(=O)O[C@@H](C)[C@@H](OCC(C)C)c2ccccc2)c1OC(C)=O` [Example 224]: the pest or weed control at 121.5 g/ha is above 80% in the test with Puccinia triticina (setting [1]), above 80% with Puccinia triticina (setting [2]), below 80% with Zymoseptoria tritici (setting [3]) and below 80% in the test with Zymoseptoria tritici (setting [4]).
`COc1ccnc(C(=O)N[C@@H](C)C(=O)O[C@@H](C)[C@@H](OCC(C)C)c2ccccc2)c1OCOC(C)=O` [Example 226]: the pest or weed control at 121.5 g/ha in the test with Puccinia triticina (setting [1]) is above 80%; in the test on Puccinia triticina (setting [2]) it was above 80%; in the test with Zymoseptoria tritici (setting [3]), below 80%; in the test on Zymoseptoria tritici (setting [4]), below 80%.
As for `CCCO[C@@H](c1ccccc1)[C@H](C)OC(=O)[C@H](C)NC(=O)c1nccc(OC)c1OC(C)=O` [Example 227], the pest or weed control at 121.5 g/ha in the test with Puccinia triticina (setting [1]) is above 80%; with Puccinia triticina (setting [2]) it was above 80%; in the test on Zymoseptoria tritici (setting [3]), below 80%; in the test on Zymoseptoria tritici (setting [4]), above 80%.
In the case of `COc1ccnc(C(=O)N[C@@H](C)C(=O)O[C@@H](C)[C@@H](OC)c2ccccc2)c1OC(C)=O` [Example 229], the pest or weed control at 121.5 g/ha in the test with Puccinia triticina (setting [1]) is below 0%; in the test on Puccinia triticina (setting [2]), above 80%; in the test with Zymoseptoria tritici (setting [3]) it was below 0%; with Zymoseptoria tritici (setting [4]) it was below 80%.
Consider `COc1ccnc(C(=O)N[C@@H](C)C(=O)O[C@@H](C)[C@H](OC)c2ccccc2)c1OC(C)=O` [Example 231], for which the pest or weed control at 121.5 g/ha is below 0% in the test with Puccinia triticina (setting [1]), above 80% with Puccinia triticina (setting [2]), below 0% in the test with Zymoseptoria tritici (setting [3]) and above 80% in the test on Zymoseptoria tritici (setting [4]).
In the case of `COc1ccnc(C(=O)N[C@@H](C)C(=O)O[C@@H](C)[C@@H](OCC2CC2)c2ccccc2)c1OC(C)=O` [Example 232], the pest or weed control at 121.5 g/ha with Puccinia triticina (setting [1]) is above 80%; in the test on Puccinia triticina (setting [2]), above 80%; with Zymoseptoria tritici (setting [3]) it was below 0%; with Zymoseptoria tritici (setting [4]) it was above 80%.
Turning to `COc1ccnc(C(=O)N[C@@H](C)C(=O)O[C@@H](C)[C@H](OCC2CC2)c2ccc(-c3ccccc3)cc2)c1OCOC(C)=O` [Example 234], the pest or weed control at 121.5 g/ha with Puccinia triticina (setting [1]) was above 80%; in the test on Puccinia triticina (setting [2]), below 80%; with Zymoseptoria tritici (setting [3]) it was above 80%; in the test with Zymoseptoria tritici (setting [4]), above 80%.
Turning to `COc1ccnc(C(=O)N[C@@H](C)C(=O)O[C@@H](C)[C@H](Oc2ccccc2)c2ccc(-c3ccccc3)cc2)c1OCOC(C)=O` [Example 239], the pest or weed control at 121.5 g/ha in the test on Puccinia triticina (setting [1]) is above 80%; in the test with Puccinia triticina (setting [2]), below 80%; in the test with Zymoseptoria tritici (setting [3]), above 80%; with Zymoseptoria tritici (setting [4]), above 80%.
With `COc1ccnc(C(=O)N[C@@H](C)C(=O)O[C@@H](C)[C@H](Oc2ccccc2)c2cccc(-c3ccccc3)c2)c1OCOC(C)=O` [Example 240], the pest or weed control at 121.5 g/ha in the test on Puccinia triticina (setting [1]) is above 80%; in the test with Puccinia triticina (setting [2]) it was below 80%; in the test on Zymoseptoria tritici (setting [3]), above 80%; with Zymoseptoria tritici (setting [4]) it was above 80%.
With `COc1ccnc(C(=O)N[C@@H](C)C(=O)O[C@@H](C)[C@H](Oc2ccc(C)cc2Cl)c2ccccc2)c1OC(C)=O` [Example 243], the pest or weed control at 121.5 g/ha is above 80% in the test on Puccinia triticina (setting [1]), below 80% in the test on Puccinia triticina (setting [2]), above 80% in the test on Zymoseptoria tritici (setting [3]) and above 80% in the test with Zymoseptoria tritici (setting [4]).
On to `COc1ccnc(C(=O)N[C@@H](C)C(=O)O[C@@H](C)[C@H](Oc2ccc(C)cc2Cl)c2ccccc2)c1OCOC(C)=O` [Example 244], for which the pest or weed control at 121.5 g/ha in the test with Puccinia triticina (setting [1]) is above 80%; with Puccinia triticina (setting [2]), below 80%; in the test with Zymoseptoria tritici (setting [3]) it was above 80%; in the test on Zymoseptoria tritici (setting [4]), above 80%.
Turning to `COc1ccnc(C(=O)N[C@@H](C)C(=O)O[C@@H](C)[C@H](Oc2ccc(C)cc2Cl)c2ccc(F)cc2)c1OCOC(C)=O` [Example 245], the pest or weed control at 121.5 g/ha with Puccinia triticina (setting [1]) was above 80%; in the test with Puccinia triticina (setting [2]) it was below 80%; in the test on Zymoseptoria tritici (setting [3]) it was above 80%; in the test with Zymoseptoria tritici (setting [4]), above 80%.
